Results reported in PubChem BioAssay AID1645848.
Values after ≈ are worked out from the molar mass of the structure shown.

Conditions: buffer; pH 7.4; 6.0 h; 150.0 µM

SMILES	solubility kinetic
CC(=O)c1cccc(-c2csc(N3CCC(C(N)=O)CC3)n2)c1	> 49 µg/mL
CCOC(=O)c1nnc(N[S+](=O)([O-])c2ccc(NC(=O)Cc3ccc(Cl)c(Cl)c3)cc2)s1	> 76 µg/mL
COc1ccc(CNc2ccc(S(=O)(=O)Nc3nccs3)cc2)cc1O	7.85 µg/mL (≈ 20.1 µM)
COc1ccc(C(=O)NC2CCCc3c2[nH]c2c(Cl)cccc32)cc1OC (stereo not drawn)	1.14 µg/mL (≈ 2.95 µM)
O=[S+]([O-])(Nc1nccs1)c1ccc(NCc2cc(Cl)cc(Br)c2O)cc1	< 1 µg/mL
CCN(CC)C(=O)N1c2ccccc2C=Cc2ccccc21	15.9 µg/mL (≈ 54.5 µM)
O=C1NCc2cc(-c3cc4c(ccn4Cc4ccncc4)c(N4CCOCC4)n3)ccc21	> 94 µg/mL
CCc1ccc(NC(=O)c2[nH]c(C)c(C(C)=O)c2C)cc1S(=O)(=O)Nc1ccc(C#N)cc1	2.19 µg/mL (≈ 4.72 µM)
O=C(Nc1cc(Cc2ccccc2)ccn1)c1ccc(-c2cccc([N+](=O)[O-])c2)o1	< 1 µg/mL
O=C(Nc1ccc(Oc2ccnc3[nH]ccc23)c(F)c1)c1cccn(-c2ccc(F)cc2)c1=O	< 1 µg/mL
Cc1sc2c(c1C)C(c1ccc(Cl)cc1)=N[C@H](CC(=O)NCCCCNC(=O)COc1cccc3c1C(=O)N([C@H]1CCC(=O)NC1=O)C3=O)c1nnc(C)n1-2	63.8 µg/mL (≈ 81.2 µM)
CCOc1cc2c(cc1OCC)CN(C(=O)c1cc3sccc3n1Cc1ccccc1)CC2	< 1 µg/mL
COc1ccc(NS(=O)(=O)c2ccc(C)cc2)cc1C(=O)Nc1nc(-c2ccccc2)cs1	< 1 µg/mL
Cc1ccc(S(=O)(=O)Nc2cccnc2C(=O)Nc2nc(-c3ccccc3)cs2)cc1	< 1 µg/mL
CCOC(=O)N1CCN(Cc2nc3c(c(=O)n(C)c(=O)n3C)n2Cc2cccc(C)c2)CC1	> 67 µg/mL
COCCNCc1ccc(-c2cc3nccc(Oc4ccc(NC(=O)C5(C(=O)Nc6ccc(F)cc6)CC5)cc4F)c3s2)nc1	< 1 µg/mL
COc1ccc(-n2nc3c(N4CCCC(C(=O)NCCc5ccc(C)cc5)C4)nnc(C)c3c2C)cc1 (stereo not drawn)	4.04 µg/mL (≈ 8.1 µM)
CCN1C(=O)c2ccccc2[S@](=O)c2ccc(C(=O)NCc3ccc(F)cc3)cc21	18.1 µg/mL (≈ 42.9 µM)
O=S(=O)(Nc1cccc2ccccc12)c1ccc(NCc2ccc(Br)cc2O)cc1	< 1 µg/mL
Cc1ccccc1C(=O)N1CCc2cc(-c3cccc(NC(=O)Cc4ccc5c(c4)OCO5)c3)ccc21	< 1 µg/mL
O=C(Nc1ncc(-c2ccccc2)s1)c1ccc(-c2cccc([N+](=O)[O-])c2)o1	< 1 µg/mL
Cc1ccnc(NC(=S)N2CCN(c3ncc(C(F)(F)F)cc3Cl)CC2)c1	12 µg/mL (≈ 29 µM)
Cn1ccc2c(C(=O)NCc3cccnc3)nc(-c3ccccc3C#N)cc21	< 1 µg/mL
CC(C)c1ccccc1-c1ncc(F)c(NCc2ccc(-c3cccnc3)s2)n1	0.132 µg/mL (≈ 0.326 µM)
Cc1ccc(-c2nn(C(C)(C)C)c3ncnc(N)c23)cc1	2.5 µg/mL (≈ 8.88 µM)

SMILES	solubility kinetic
Cc1ccc(S(=O)(=O)Nc2ccc(OC(F)(F)F)cc2C(=O)Nc2nc(-c3ccccc3)cs2)cc1	< 1 µg/mL
Cc1noc(C)c1C(=O)N1CCC2(CCCN(Cc3ccccc3)C2)CC1	< 1 µg/mL
Cc1onc(-c2ccc(F)cc2)c1COc1ccc(C(=O)N2CCS(=O)(=O)CC2)cn1	> 66 µg/mL
Cc1ccc(S(=O)(=O)Nc2cnccc2C(=O)Nc2nc(-c3cnn(C)c3)cs2)cc1	25.4 µg/mL (≈ 55.8 µM)
CSc1ccccc1N1CCN(CCCCCC(=O)NC2CCCc3ccccc32)CC1 (stereo not drawn)	44.7 µg/mL (≈ 99 µM)
COC(=O)C1=C(C)NC(C)=C(C(=O)O[C@@H]2CCCN(Cc3ccccc3)C2)[C@@H]1c1cccc([N+](=O)[O-])c1	< 1 µg/mL
Cc1nn2c(c1-c1ccccc1-c1ccccc1)N(CCC(C)C)CCC2	< 1 µg/mL
CC(=O)c1ccc(N2CCN(S(=O)(=O)c3cc4c(cc3Cl)NC(=O)C4)CC2)cc1	1.16 µg/mL (≈ 2.68 µM)
Cc1ccc(-n2c(C)cc(-c3nnc4n3CCCCC4)c2C)cc1	27.8 µg/mL (≈ 86.6 µM)
Cc1ccc(C)c(SC2=NS(=O)(=O)c3ccccc32)c1	< 1 µg/mL
O=[N+]([O-])c1cccnc1N/N=C/c1ccccc1O	< 1 µg/mL
C[C@H]1CN(C(=O)Nc2ccc(F)cc2F)C[C@@H]1c1nc(-c2ccccc2)no1	19.3 µg/mL (≈ 50.3 µM)
COc1cc(-c2csc(N3CCC(C(N)=O)CC3)n2)cc(OC)c1OC	> 56 µg/mL
CC1Oc2cc3c(-c4c(O)cc(O)c5c(O)c6c(cc45)OC(C)C(C)C6=O)c(O)cc(O)c3c(O)c2C(=O)C1C (stereo not drawn)	53.5 µg/mL (≈ 97.8 µM)
O=C(Nc1nc(-c2ccccc2)cs1)c1ccncc1NS(=O)(=O)c1ccc2c(c1)CCC2	5.8 µg/mL (≈ 12.2 µM)
COc1cccc(CN(C)c2ccc([S+](=O)([O-])Nc3nccs3)cc2)c1O	2.08 µg/mL (≈ 5.13 µM)
Cc1cc(/C=C2/C(=O)Nc3ccccc32)cc(C)c1O	< 1 µg/mL
Cc1ccc(-c2c(CN3CCN(c4cccc(C(F)(F)F)c4)CC3)csc2C)cc1	< 1 µg/mL
Cc1ccc(Nc2nc(C)c(NC(=O)c3ccc(C)cc3)c(Nc3ccc(C)cc3)n2)cc1	< 1 µg/mL
O=C(Nc1ccc(F)cc1F)c1cc(-c2ccc[nH]2)n[nH]1	> 29 µg/mL
Cc1ccc(S(=O)(=O)Nc2ccccc2C(=O)Nc2nc(-c3ccccc3)c(C)s2)cc1	< 1 µg/mL
CC1CCC(NC(=O)c2ccc3c(c2)N(Cc2ccccc2F)C(=O)c2ccccc2S3)CC1 (stereo not drawn)	1.06 µg/mL (≈ 2.24 µM)
CC(C)(C)c1ccc(-c2csc(N3CCC(C(N)=O)CC3)n2)cc1	< 1 µg/mL
COc1ccc(NC2=C(c3ccc(C(F)(F)F)cc3)C(=O)c3ccccc32)cc1	1.04 µg/mL (≈ 2.64 µM)
O=C(O)c1c(Sc2ccccc2)c2cc(Cl)ccc2n1Cc1ccc(Cl)cc1	> 63 µg/mL

SMILES	solubility kinetic
CN1CCN(C(=O)c2ccc3cc(CCNc4ncnc5ccc(C#N)cc45)ccc3c2)CC1	49.7 µg/mL (≈ 110 µM)
Cc1ccc(C(=O)N2CCc3sc(C(=O)NC(C)c4ccccc4)cc3C2)cc1 (stereo not drawn)	2.09 µg/mL (≈ 5.17 µM)
CC(=O)Nc1ccc(OCc2cn(CC(=O)c3ccc(O)cc3)nn2)cc1	18.7 µg/mL (≈ 51 µM)
COc1ccc(NC2CCCN(C(=O)CCc3ccccc3F)C2)cc1 (stereo not drawn)	41.3 µg/mL (≈ 116 µM)
COc1ccc(CN2CCNc3cc(Nc4ccccc4)ncc3C2)cn1	31.1 µg/mL (≈ 86 µM)
N#Cc1ccc(NS(=O)(=O)c2ccc(NC(=O)Cc3ccc(Cl)c(Cl)c3)cc2)cc1	< 1 µg/mL
O=S(=O)(Nc1nc2ccccc2s1)c1ccc(NCc2ccc(Br)cc2O)cc1	4.87 µg/mL (≈ 9.92 µM)
NC(=O)C1CCN(c2nc(-c3cccc(N)c3)cs2)CC1	> 45 µg/mL
O=C(Nc1ccc(OC(F)(F)F)cc1)c1sccc1NCc1ccnc2ccccc12	< 1 µg/mL
Cn1cc(S(=O)(=O)N2CCCCCC2)cc1C(=O)Nc1ccc(Cl)c(C(F)(F)F)c1	< 1 µg/mL
Cc1cc(S(=O)(=O)Nc2cnccc2C(=O)Nc2nc(-c3ccccc3)cs2)c(C)o1	> 67 µg/mL
O=S(=O)(Nc1nccs1)c1ccc(NCc2cccc(F)c2O)cc1	> 56 µg/mL
CCOC(=O)C1CCN(C(=O)C2(NC(=O)Nc3ccccc3Cl)CCCC2)CC1	41.8 µg/mL (≈ 99 µM)
CN(C)c1ccc(S(=O)(=O)N2CCCCC2)cc1NS(=O)(=O)c1ccc2ccccc2c1	2.05 µg/mL (≈ 4.33 µM)
CC(=O)c1c(C)n(-c2ccccc2)c2ccc(O)cc12	1.14 µg/mL (≈ 4.28 µM)
Nc1c(C(=O)N2CCCCC2)sc(=S)n1-c1ccccc1	9.32 µg/mL (≈ 29.2 µM)
O=C(Cc1ccc(Cl)cc1)Nc1cnccc1C(=O)O	> 43 µg/mL
COc1cccc(-c2nc(-c3cc4cc(OC)ccc4[nH]c3=O)no2)c1	< 1 µg/mL
Cc1ccc(S(=O)(=O)Nc2cccc(C(=O)Nc3nc(-c4ccccc4)cs3)c2)cc1	< 1 µg/mL
Fc1ccc(Nc2ccnc(-c3ccncc3)n2)cc1F	1.22 µg/mL (≈ 4.27 µM)
N#Cc1cccc(NC(=O)c2sc3nc4c(cc3c2N)N2CCC4CC2)c1	5.07 µg/mL (≈ 13.5 µM)
OCc1ccc(-c2cc3c(ccn3Cc3cccnc3)c(C3=CCOCC3)n2)cc1	54.9 µg/mL (≈ 138 µM)
N=c1c2ccccc2nnn1-c1ccc(C(F)(F)F)cc1	< 1 µg/mL
CN(C)c1cccc(-c2nc(N3CCC(C(N)=O)CC3)ncc2F)c1	42.6 µg/mL (≈ 124 µM)
COc1cccc(NC(=S)N2CCN(c3cccc(C(F)(F)F)c3)CC2)n1	0.435 µg/mL (≈ 1.1 µM)

SMILES	solubility kinetic
Cc1ccc(NS(=O)(=O)c2cc3c(cc2N[C@H](C)CO)NC(=O)CC3)cc1C	> 60 µg/mL
NC(=O)C1CCN(c2nc(-c3ccccc3N)cs2)CC1	29.4 µg/mL (≈ 97.1 µM)
O=C(Nc1cccnc1)c1cccs1	> 30 µg/mL
FC(F)(F)c1cccc(N2CCN(C(=S)Nc3ccccn3)CC2)c1	13.4 µg/mL (≈ 36.5 µM)
O=C(Nc1ncc(Cc2ccc(C(F)(F)F)cc2)s1)c1cccc(-c2ccccc2)c1	< 1 µg/mL
CC[C@H](NC(=O)c1c(O)c(-c2ccccc2)nc2ccccc12)c1ccccc1	31.7 µg/mL (≈ 82.8 µM)
O=C(Nc1nc(-c2ccccc2)cs1)c1ccncc1NS(=O)(=O)c1cccnc1	> 65 µg/mL
O=C(Cc1ccc(Cl)c(Cl)c1)Nc1ccc([S+](=O)([O-])Nc2ccccn2)cc1	< 1 µg/mL
O=C1Nc2ccccc2/C1=C\c1ccc(O)c(Cl)c1	22.8 µg/mL (≈ 83.9 µM)
Fc1cc(Nc2nc(-c3ccncc3)nc3ccccc23)ccc1-c1ccc(F)c(F)c1F	< 1 µg/mL
OC1(c2ccc(Cl)cc2)CCN(Cc2c[nH]c3ccccc23)CC1	> 50 µg/mL
CCOC(=O)c1[nH]c(C)c(CCC(=O)N2CCN(c3cc(C)ccc3C)CC2)c1C	6.25 µg/mL (≈ 15.2 µM)
O=C(c1ccc2c(c1)ncn2-c1ccccc1)N1CCCCC1	> 45 µg/mL
CC(C)Oc1ccc(CCNC(=O)c2cc3sccc3n2Cc2ccccc2)cc1OC(C)C	< 1 µg/mL
CNc1oc(-c2cccc3ccccc23)nc1C#N	< 1 µg/mL
CCOc1ccccc1C(=O)Nc1ccccc1C(=O)Nc1cccc(C(F)(F)F)c1	< 1 µg/mL
Cc1cccc(C)c1C(=O)Nc1cccc([S+](=O)([O-])N2CCCCCC2)c1	2.03 µg/mL (≈ 5.26 µM)
Cc1ccc(C(=O)N2CCc3cc(-c4nc(NC(=O)Cc5ccc6c(c5)OCO6)sc4C)ccc32)cc1	< 1 µg/mL
COC(=O)CNC(=O)c1nc(-c2ccc([S+](C)(=O)[O-])cc2)c2ccccn12	2.27 µg/mL (≈ 5.87 µM)
Cc1cc(C)c(CNC(=O)c2nc(-c3ccc(CN(C)C)cc3)cc3c2ccn3C(C)C)c(=O)[nH]1	40.3 µg/mL (≈ 85.4 µM)
CCC(=O)NC(c1ccco1)c1cc(Cl)c2cccnc2c1O (stereo not drawn)	< 1 µg/mL
COc1ccc(Cn2c(C(=O)O)c(CNCc3cccc(OC)c3)c3ccc(C)cc32)cc1	6.85 µg/mL (≈ 15.4 µM)
Cc1ccc(S(=O)(=O)Nc2cc(Br)ccc2C(=O)Nc2nc(-c3ccccc3)cs2)cc1	< 1 µg/mL
